Measured values as given in PMC7463460, “Structure and Antiparasitic Activity Relationship of Alkylphosphocholine Analogues against Leishmania donovani” (Microorganisms, 2020).
Values joined by “and” are separate entries in the source; they are usually repeats but may differ in a detail not shown here. Identical values can stand only once.

Key:
[1] = test system: L. donovani 087/11 (Sb-intermediate) intracellular amastigotes; assay: Intracellular amastigote assay, Sb-intermediate strain 087/11; type: cell-based, Leishmania donovani; conditions: for IC50: Leishmania donovani, read-out: Mean IC50 Amastigotes; for Cross-Resistance Index (CRI50) Amast: strain 087/11, Sb-intermediate vs Sb-S; for Selectivity Index (SI50): strain 087/11, Sb-intermediate, macrophage CC50 / amastigote IC50
Excerpt: (§1) L. donovani cloned strains with different Sb susceptibility backgrounds were derived from isolates obtained from VL patients at the B.P. Koirala Institute of Health Sciences, Dharan, Nepal: MHOM/NP/02/BPK282/0cl4 (Sb sensitive, Sb-S). MHOM/NP/02/BPK087/0cl11 (Sb intermediate, Sb-I) and MHOM/NP/02/BPK275/0cl18 (Sb resistance, Sb-R [13]). In addition, Milt-resistant parasites raised against these three Sb sensitivity backgrounds and the Sb-sensitive strain (MHOM/ET/67:LV82) was also used in studies. Luciferase expressing promastigotes for the LV82 and Nepalese strains were prepared using previously published methods and the integrative construct (a gift from Dr D.F. Smith), designated pGL1313, contained pSSU-int fragments to facilitate integration into the ribosomal RNA locus of Leishmania.
In the macrophage studies, the method described in previous studies was used as follows. Briefly, bone-marrow-derived BALB/c macrophages (1–2 × 10^5) in 100 µL complete RPMI 1640 medium were added to the wells of a 96 well plate and left to adhere for 24 h at 37 °C, 5% CO₂/95% air. The medium was removed and 100 µL of the appropriate L. donovani luciferase-expressing promastigotes line (parasite: host cell ratio 1:10, 1:20 or 1:40) was added to each well, the ratio used reflected the infectivity of the strain and ensured that control data gave a bioluminescent signal within the same range. […] The variability in infectivity complicates strain to strain comparisons, but we decided to focus on achieving good infection levels in controls so that the effect of drug treatment could be determined. It is possible that intracellular macrophage parasites could have been at different developmental stages at 24 h post-infection. […] Therefore, we assumed that the effect of compounds on the amastigote stage rather than the promastigotes stage was determined in in vitro macrophage studies.
The plate was incubated for a further 24 h, the medium removed, and each well washed with PBS to eliminate non-internalized parasites, which were monitored microscopically. When the wells were devoid of external parasites, 100 µL of the medium alone (control) or appropriate APC compound was then added (0.01–0.197 µg/mL, n = 3/treatment). […]. All plates were incubated for 72 h at 37 °C, 5% CO₂/95% air. Wells with macrophage and with no drug or promastigotes added were used in control experiments.
(§2) Luciferin solution (1 µg/mL in 20 µL medium without FCS) was added to the appropriate wells of the 96-well plate at the end of the experiment and the amount of light emitted/well was measured using a luminometer (Biotek Synergy HT, relative light units) using a wavelength/bandwidth of 440/40 nm, or IVIS® imaging (Spectrum Living Image system®, total flux, photons/sec).
The effect of drug treatment on parasite survival was determined by calculating the mean suppression in the light emitted from the drug-treated experimental sample compared to the mean control value and used to calculate the IC50 using Grafit® software (version 5.0, Erithacus Software, East Grinstead, West Sussex, UK). The effect of drug alone on the viability of uninfected macrophages was determined using the same experimental protocol above, but cell viability was determined using an alamar blue colorimetric assay. At the end of the incubation period, cells’ 10 µL resazurin solution (0.02% w/v) was added to control and drug treated cells and the absorbance of samples was read at 575 and 595 nm. The effect of drug treatment on cell survival, which correlates with the magnitude of dye reduction, was expressed as percentage viability (or alamar blue reduction) and determined using the formula provided in the manufacturer’s protocol % alamar blue reduction=(εoxλ)(Aλ1)−(εoxλ1)(Aλ2)/(εredλ1)(A^′λ2)−(εredλ2)(A^′λ1)x100 […]

[2] = test system: L. donovani 282/4 Milt-Sb-sensitive promastigotes; assay: Promastigote luciferase assay, Milt-resistant 282/4; type: cell-based, Leishmania donovani; conditions: for IC50: Leishmania donovani, read-out: Mean IC50 Value Promastigotes; for Promast: Amast Ratio: strain 282/4, Milt-Sb-sensitive
Excerpt: as §1
The anti-leishmanial activity of APC against L. donovani luciferase-expressing promastigotes was determined by adding of the appropriate 100 µL parasite line (10^6 cells/mL) to the wells of a 96-well plate and adding 100 µL medium alone (controls) or 100 µL of APC compound (0.01 µg/mL–6.25 µg/mL, n = 3/treatment). The plate was incubated for 72 h at 25 °C. In combination assays, the additional compound/compounds, at a final concentration of 0.195 or 0.39 µg/mL, was added to the initial APC being tested.
as §2
The effect of drug treatment on parasite survival was determined by calculating the mean suppression in the light emitted from the drug-treated experimental sample compared to the mean control value and used to calculate the IC50 using Grafit® software (version 5.0, Erithacus Software, East Grinstead, West Sussex, UK). The effect of drug alone on the viability of uninfected macrophages was determined using the same experimental protocol above, but cell viability was determined using an alamar blue colorimetric assay. At the end of the incubation period, cells’ 10 µL resazurin solution (0.02% w/v) was added to control and drug treated cells and the absorbance of samples was read at 575 and 595 nm. The effect of drug treatment on cell survival, which correlates with the magnitude of dye reduction, was expressed as percentage viability (or alamar blue reduction) and determined using the formula provided in the manufacturer’s protocol % alamar blue reduction=(εoxλ)(Aλ1)−(εoxλ1)(Aλ2)/(εredλ1)(A^′λ2)−(εredλ2)(A^′λ1)x100

[3] = set-up: method as in Anatrace product description sheet; conditions: critical micellar concentration; ref Anatrace product description sheet; cited from earlier work
[4] = test system: L. donovani 282/4 (Sb-sensitive) intracellular amastigotes; assay: Intracellular amastigote assay, Sb-sensitive strain 282/4; type: cell-based, Leishmania donovani; conditions: strain 282/4, Sb-sensitive; for IC50: Leishmania donovani; for Selectivity Index (SI50): macrophage CC50 / amastigote IC50
Excerpt: as §1
In the macrophage studies, the method described in previous studies was used as follows. […] It is possible that intracellular macrophage parasites could have been at different developmental stages at 24 h post-infection. […] Therefore, we assumed that the effect of compounds on the amastigote stage rather than the promastigotes stage was determined in in vitro macrophage studies.
The plate was incubated for a further 24 h, the medium removed, and each well washed with PBS to eliminate non-internalized parasites, which were monitored microscopically. […] Wells with macrophage and with no drug or promastigotes added were used in control experiments.
as §2
The effect of drug treatment on parasite survival was determined by calculating the mean suppression in the light emitted from the drug-treated experimental sample compared to the mean control value and used to calculate the IC50 using Grafit® software (version 5.0, Erithacus Software, East Grinstead, West Sussex, UK). The effect of drug alone on the viability of uninfected macrophages was determined using the same experimental protocol above, but cell viability was determined using an alamar blue colorimetric assay. […] The effect of drug treatment on cell survival, which correlates with the magnitude of dye reduction, was expressed as percentage viability (or alamar blue reduction) and determined using the formula provided in the manufacturer’s protocol % alamar blue reduction=(εoxλ)(Aλ1)−(εoxλ1)(Aλ2)/(εredλ1)(A^′λ2)−(εredλ2)(A^′λ1)x100

| SMILES | IC50 [1] | Cross-Resistance Index (CRI50) Amast [1] | Selectivity Index (SI50) [1] | IC50 [2] | Promast: Amast Ratio [2] | CMC [3] | IC50 [4] | Selectivity Index (SI50) [4] |
| --- | --- | --- | --- | --- | --- | --- | --- | --- |
| CCCCCCCCCCCCOP(=O)([O-])OCC[N+](C)(C)C [APC12, dodecylphosphocholine] | 0.2 µg/mL and 570 nM | 0.77 | 176.90 | > 125 µg/mL and > 356 µM | >1562.5 | 351.50 µg/mL | 0.26 µg/mL and 740 nM | 136.08 |
| CCCCCCCCCCCCCCOP(=O)([O-])OCC[N+](C)(C)C [APC14, tetradecylphosphocholine] | 0.19 µg/mL and 500 nM | 1.58 | 215.21 | > 125 µg/mL and > 329 µM | >72.25 | 45.54 µg/mL | 0.12 µg/mL and 320 nM | 340.75 |
| CCCCCCCCCCCCCCCCOP(=O)([O-])OCC[N+](C)(C)C [APC16, hexadecylphosphocholine, reference compound] | 0.29 µg/mL and 710 nM | – | – | > 125 µg/mL and > 307 µM | >77.64 | 0.41 µg/mL | 0.31 µg/mL and 760 nM | – |
